Assay results published in patent EP0713704A1, “2-Amino-1,3-thiazines as nitric oxide synthase inhibitors” (HOECHST AKTIENGESELLSCHAFT, priority 1994, dated 1996).
Counter-ions that a name gives are not always drawn.

How the values were obtained:
NO-Synthase (iNOS) = molecular target: T1, NO-Synthase (iNOS) (Mus musculus, UniProt P29477); assay: NO measurement by oxyhaemoglobin on macrophages (inhibition of NO release, LPS/γIFN-stimulated); format: cell-based, Maus; conditions: Mäusemakrophagen RAW 264.7, stimulated with LPS + γIFN for 4 h, 120 min incubation with test substance; read-out: IC₅₀-Wert
T1 construct: wird die Neusynthese des NO-produzierenden Enzyms NO-Synthase (iNOS) induziert; endogenous in cells; host or cells: RAW 264.7 mouse macrophages stimulated with LPS and γ-interferon
Description: Die Hemmung der NO-Freisetzung durch die Verbindungen der allgemeinen Formel I kann auch durch NO-Messung mittels Oxyhämoglobin auf Makrophagen wie folgt bestimmt werden:
Die subkonfluenten Zellen werden mit dem Zellschaber abgekratzt, in Medium aufgenommen, die Zellzahl bestimmt (Zählung in Trypanblaulösung 0,2 %) und in 24-Napfplatten (1 x 10⁶ Zellen/ml, 1 ml/Napf) ausgesät.
Dazu wird das Kulturmedium von den Zellen abgesaugt und 1 ml/Napf (24-Napfplatte) Inkubationsmedium (MEM ohne Phenolrot (Biochrom F0385)), konditioniert mit 4mM Glutamin, 3,5 g Glukose/l, 3,7 g NaHCO₃/l, 110 mg Natriumpyruvat/l, 50 U/50 µg/ml Pen/Strep und 5 % FKS, aufgegeben. Pro ml Inkubationsmedium werden 1 µl LPS und 1 µl γIFN pipettiert.
Daraus ergeben sich folgende Konzentrationen der Stimulatoren: 140 ng LPS/ml + 5 U γIFN/ml [formula] Während der Stimulation über 4 Stunden wird die Neusynthese des NO-produzierenden Enzyms NO-Synthase (iNOS) induziert. Nach diesem Inkubationszeitraum wird das Inkubationsmedium abgesaugt und jeder Napf zweimal mit frischem Inkubationsmedium gespült. […] Als Kontrolle wird das konditionierte Versuchsmedium nur mit dem Lösungsmittel der Testsubstanz versetzt.
Nach dem Abpipettieren des Versuchsmediums wird die Cytotoxizität der Testsubstanz geprüft (Zellviabilität).

[1] = molecular target: induzierbaren NO-Synthase (Homo sapiens, UniProt P35228); assay: NO synthase activity assay: quantification of coproduct 3H-L-citrulline formed from 3H-L-arginine; format: biochemical; conditions: read-out: Restaktivität
Text: Die erfindungsgemäße Hemmung der NO-Freisetzung durch die Verbindungen der allgemeinen Formel I kann durch einen Aktivitätsassay bestimmt werden, der auf Arbeiten von Bredt und Snyder sowie Schmidt et al. basiert (s. D.S. Bredt und S.S. Snyder, Isolation of nitric oxide synthase, a calmodulin-requiring enzyme, Proc. Natl. Acad. Sci. USA 87 (1990), 682; H.H.H.W.Schmidt et al., Purification of a soluble isoform of guanylyl cyclase-activating factor synthase, Proc. Natl. Acad. Sci. USA 88 (1991), 365). Hierbei wird für gereinigte NO-Synthase (NOS) das bei der NO-Bildung anfallende Coprodukt L-Citrullin quantitativ erfaßt. Dies geschieht durch den Einsatz von ³H-radiomarkiertem L-Arginin als Substrat der Enzymreaktion, das zu ³H-L-Citrullin und NO umgesetzt wird. Nach Beendigung der Enzyminkubation wird […]; die durch Flüssigkeitsszintillationsmessung ermittelte ³H-Aktivität entspricht dann der Menge an L-Citrullin.
• a) Die Substanz ist analog Beispiel 2 erhältlich. Weiße Kristalle vom Schmp. 153 °C. • b) Die pharmakologische Wirkung wurde in dem oben beschriebenen Aktivitätsassy ermittelt, bei dem das von der NO-Synthase als Coprodukt gebildete Citrullin bestimmt wird. Es wurden folgende Hemmungen der induzierbaren NO-Synthase beobachtet: […]

NC1=NCCCS1 [Beispiel 1, 2-Amino-5,6-dihydro-4H-1,3-thiazin-Hydrobromid]
IC50 (NO-Synthase (iNOS)): 1300 nM

CC1(C)CCSC(N)=N1 [Beispiel 3, 2-Amino-4,4-dimethyl-5,6-dihydro-1,3-thiazin-Hydrochlorid]
activity at 1 µM ([1]; Konzentration: 1 µM): 15% | activity at 10 µM ([1]; Konzentration: 10 µM): 12%
